Data from ChEMBL document CHEMBL5465560, “Selectivity Literature for EUbOPEN Chemogenomic Library” (2024).

Experiments:
[1] = target: Misshapen-like kinase 1 (Homo sapiens, UniProt Q8N4C8); conditions: at 10 µM
[2] = target: T1, Dual specificity mitogen-activated protein kinase kinase 4 (Homo sapiens) (UniProt P45985); experiment: Selectivity interaction (Kinase screening (Upstate/Millipore)) EUB0000604a MAP2K4
T1 sequence (whole entry): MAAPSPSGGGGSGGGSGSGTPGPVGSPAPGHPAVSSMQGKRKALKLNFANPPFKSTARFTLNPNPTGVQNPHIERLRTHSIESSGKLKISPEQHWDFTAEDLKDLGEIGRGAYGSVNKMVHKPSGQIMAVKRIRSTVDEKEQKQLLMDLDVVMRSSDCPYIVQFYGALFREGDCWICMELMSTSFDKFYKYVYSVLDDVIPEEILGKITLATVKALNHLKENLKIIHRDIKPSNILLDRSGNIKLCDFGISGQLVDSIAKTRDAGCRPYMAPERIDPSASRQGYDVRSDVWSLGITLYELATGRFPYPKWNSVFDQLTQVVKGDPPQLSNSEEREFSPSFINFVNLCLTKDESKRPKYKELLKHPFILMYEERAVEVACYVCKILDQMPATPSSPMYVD

[3] = target: Focal adhesion kinase 1 (Homo sapiens, UniProt Q05397); experiment: Selectivity interaction (ActivX KiNativ screen (kinase selectivity in THP-1 cell lysates)) EUB0000639a PTK2; assay type: subcellular; conditions: lysate, at 0.04 µM
Sequence of Focal adhesion kinase 1 (Q05397 2-1052 limits assumed): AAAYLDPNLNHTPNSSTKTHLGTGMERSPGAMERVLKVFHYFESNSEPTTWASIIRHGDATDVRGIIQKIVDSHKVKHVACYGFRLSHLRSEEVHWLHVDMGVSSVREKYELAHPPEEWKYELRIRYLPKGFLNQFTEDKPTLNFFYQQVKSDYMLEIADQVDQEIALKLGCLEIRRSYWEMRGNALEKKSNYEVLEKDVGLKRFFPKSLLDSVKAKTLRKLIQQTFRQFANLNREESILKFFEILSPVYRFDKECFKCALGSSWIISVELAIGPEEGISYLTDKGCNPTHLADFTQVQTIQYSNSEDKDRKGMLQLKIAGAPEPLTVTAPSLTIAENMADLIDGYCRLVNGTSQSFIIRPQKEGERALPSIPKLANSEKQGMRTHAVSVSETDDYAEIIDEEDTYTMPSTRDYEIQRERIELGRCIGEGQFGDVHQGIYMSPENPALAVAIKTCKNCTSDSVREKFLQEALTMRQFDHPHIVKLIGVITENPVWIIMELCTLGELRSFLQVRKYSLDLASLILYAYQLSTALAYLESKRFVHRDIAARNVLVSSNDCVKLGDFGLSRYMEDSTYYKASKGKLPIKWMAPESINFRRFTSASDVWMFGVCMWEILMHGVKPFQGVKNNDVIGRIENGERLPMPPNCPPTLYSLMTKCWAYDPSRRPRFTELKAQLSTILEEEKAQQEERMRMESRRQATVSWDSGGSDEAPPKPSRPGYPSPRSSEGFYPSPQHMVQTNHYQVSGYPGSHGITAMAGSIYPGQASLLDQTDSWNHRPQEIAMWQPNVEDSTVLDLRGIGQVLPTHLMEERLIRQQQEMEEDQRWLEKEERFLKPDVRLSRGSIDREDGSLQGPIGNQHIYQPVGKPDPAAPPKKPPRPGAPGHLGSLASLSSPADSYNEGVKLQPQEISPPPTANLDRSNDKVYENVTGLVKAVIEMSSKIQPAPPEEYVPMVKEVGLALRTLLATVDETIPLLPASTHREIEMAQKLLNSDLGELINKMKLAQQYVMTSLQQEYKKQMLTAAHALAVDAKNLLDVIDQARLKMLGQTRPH

[4] = target: 5'-AMP-activated protein kinase catalytic subunit alpha-2 (Homo sapiens) (UniProt P54646); experiment: Selectivity interaction (ActivX KiNativ screen (kinase selectivity in THP-1 cell lysates)) EUB0000639a PRKAA2; assay type: subcellular; conditions: lysate, at 1 µM
Sequence of 5'-AMP-activated protein kinase catalytic subunit alpha-2 (Homo sapiens) (P54646 whole entry, looked up): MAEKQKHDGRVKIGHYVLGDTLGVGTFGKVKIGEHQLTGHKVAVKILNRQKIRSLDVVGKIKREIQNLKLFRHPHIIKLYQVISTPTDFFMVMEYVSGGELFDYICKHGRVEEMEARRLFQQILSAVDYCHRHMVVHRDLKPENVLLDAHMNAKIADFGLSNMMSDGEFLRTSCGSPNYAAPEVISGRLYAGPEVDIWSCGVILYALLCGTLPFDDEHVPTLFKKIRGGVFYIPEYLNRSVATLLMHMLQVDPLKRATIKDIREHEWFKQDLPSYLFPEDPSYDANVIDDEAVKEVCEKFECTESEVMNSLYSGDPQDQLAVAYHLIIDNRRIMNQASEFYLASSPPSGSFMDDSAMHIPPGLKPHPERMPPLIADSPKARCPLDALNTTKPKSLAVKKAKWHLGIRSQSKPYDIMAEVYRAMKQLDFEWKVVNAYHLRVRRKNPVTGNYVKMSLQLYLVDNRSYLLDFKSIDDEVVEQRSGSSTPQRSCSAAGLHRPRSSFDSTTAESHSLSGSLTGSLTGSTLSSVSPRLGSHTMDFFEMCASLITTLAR

[5] = target: T2, Receptor-type tyrosine-protein kinase FLT3 (Homo sapiens, UniProt P36888)
T2 sequence (P36888 whole entry): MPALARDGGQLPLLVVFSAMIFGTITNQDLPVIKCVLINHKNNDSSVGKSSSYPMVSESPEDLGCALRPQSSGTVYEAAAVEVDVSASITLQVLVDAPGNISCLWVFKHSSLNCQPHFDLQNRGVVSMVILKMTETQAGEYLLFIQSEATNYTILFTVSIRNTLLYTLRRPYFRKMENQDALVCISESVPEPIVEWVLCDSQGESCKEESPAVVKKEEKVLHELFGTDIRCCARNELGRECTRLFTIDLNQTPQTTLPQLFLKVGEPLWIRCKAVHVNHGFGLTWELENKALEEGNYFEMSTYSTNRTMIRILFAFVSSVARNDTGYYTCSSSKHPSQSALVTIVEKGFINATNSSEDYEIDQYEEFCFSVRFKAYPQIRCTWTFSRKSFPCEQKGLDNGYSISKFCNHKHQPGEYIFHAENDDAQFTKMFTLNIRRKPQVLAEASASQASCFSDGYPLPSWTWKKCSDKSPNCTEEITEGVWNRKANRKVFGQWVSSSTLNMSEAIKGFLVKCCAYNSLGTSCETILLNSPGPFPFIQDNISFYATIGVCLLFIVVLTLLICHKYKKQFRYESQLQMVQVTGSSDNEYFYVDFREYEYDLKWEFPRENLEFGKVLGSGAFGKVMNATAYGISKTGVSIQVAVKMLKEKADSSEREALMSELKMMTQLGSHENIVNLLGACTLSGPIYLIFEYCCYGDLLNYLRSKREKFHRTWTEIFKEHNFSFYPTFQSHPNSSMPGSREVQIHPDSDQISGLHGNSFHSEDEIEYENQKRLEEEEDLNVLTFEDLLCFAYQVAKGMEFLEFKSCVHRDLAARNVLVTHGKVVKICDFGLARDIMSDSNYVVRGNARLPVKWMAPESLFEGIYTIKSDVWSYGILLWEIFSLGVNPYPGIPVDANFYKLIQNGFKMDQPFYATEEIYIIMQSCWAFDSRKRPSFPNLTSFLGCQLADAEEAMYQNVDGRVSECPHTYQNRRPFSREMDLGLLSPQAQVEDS

[6] = target: Protein kinase C delta type (Homo sapiens) (UniProt Q05655); experiment: Selectivity interaction (KinomeScan (DiscoverX)) EUB0000695a PRKCD; conditions: at 100 nM
Sequence of Protein kinase C delta type (Homo sapiens) (Q05655 whole entry, looked up): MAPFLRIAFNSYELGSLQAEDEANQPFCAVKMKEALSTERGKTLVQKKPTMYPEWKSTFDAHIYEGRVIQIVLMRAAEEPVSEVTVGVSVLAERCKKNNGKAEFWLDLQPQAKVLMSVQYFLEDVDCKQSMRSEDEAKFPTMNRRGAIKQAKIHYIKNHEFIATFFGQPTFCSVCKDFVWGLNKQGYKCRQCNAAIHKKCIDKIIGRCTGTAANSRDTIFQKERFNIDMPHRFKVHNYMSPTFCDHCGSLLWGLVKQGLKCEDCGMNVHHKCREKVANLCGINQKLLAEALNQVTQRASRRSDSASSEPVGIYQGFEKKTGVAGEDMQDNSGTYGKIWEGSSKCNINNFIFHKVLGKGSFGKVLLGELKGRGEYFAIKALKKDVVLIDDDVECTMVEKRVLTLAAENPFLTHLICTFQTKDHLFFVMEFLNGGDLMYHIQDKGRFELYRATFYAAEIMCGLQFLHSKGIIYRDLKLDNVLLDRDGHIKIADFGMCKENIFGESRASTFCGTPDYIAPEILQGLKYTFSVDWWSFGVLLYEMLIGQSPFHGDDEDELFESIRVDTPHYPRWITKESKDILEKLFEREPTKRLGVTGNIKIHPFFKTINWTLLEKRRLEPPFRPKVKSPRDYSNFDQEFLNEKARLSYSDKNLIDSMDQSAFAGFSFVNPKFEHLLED

[7] = target: T3, N-lysine methyltransferase KMT5A (Homo sapiens) (UniProt Q9NQR1); experiment: Selectivity interaction (Methyltransferase screen (radiometric assays, panel of 8 PRMTs, 21 protein lysine methyltransferases, 3 DNA methyltransferases, and one RNA methyltransferase)) EUB0000272b SETD8
T3 sequence (whole entry): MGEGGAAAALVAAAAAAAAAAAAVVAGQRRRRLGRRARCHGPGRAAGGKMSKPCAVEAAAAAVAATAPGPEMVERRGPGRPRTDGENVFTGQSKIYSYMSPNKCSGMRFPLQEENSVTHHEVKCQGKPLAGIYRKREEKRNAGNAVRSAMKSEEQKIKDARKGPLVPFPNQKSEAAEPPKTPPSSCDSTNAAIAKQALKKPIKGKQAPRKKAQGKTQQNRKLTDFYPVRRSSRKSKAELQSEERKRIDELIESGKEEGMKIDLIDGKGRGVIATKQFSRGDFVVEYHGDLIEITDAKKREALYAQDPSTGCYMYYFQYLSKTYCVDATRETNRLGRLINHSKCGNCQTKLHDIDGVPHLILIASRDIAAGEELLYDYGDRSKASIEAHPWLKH

[8] = target: Ephrin type-A receptor 2 (Homo sapiens) (UniProt P29317); experiment: Selectivity interaction (KinomeScan (DiscoverX)) EUB0000655a EPHA2; conditions: at 10 µM
[9] = test system: Epidermal growth factor receptor (Homo sapiens), P00533 [G719C]; experiment: (§1) Selectivity interaction (KinomeScan (DiscoverX)) EUB0000607a EGFR; conditions: at 10 µM
Sequence of Epidermal growth factor receptor (Homo sapiens), P00533 [G719C] (P00533 whole entry G719C): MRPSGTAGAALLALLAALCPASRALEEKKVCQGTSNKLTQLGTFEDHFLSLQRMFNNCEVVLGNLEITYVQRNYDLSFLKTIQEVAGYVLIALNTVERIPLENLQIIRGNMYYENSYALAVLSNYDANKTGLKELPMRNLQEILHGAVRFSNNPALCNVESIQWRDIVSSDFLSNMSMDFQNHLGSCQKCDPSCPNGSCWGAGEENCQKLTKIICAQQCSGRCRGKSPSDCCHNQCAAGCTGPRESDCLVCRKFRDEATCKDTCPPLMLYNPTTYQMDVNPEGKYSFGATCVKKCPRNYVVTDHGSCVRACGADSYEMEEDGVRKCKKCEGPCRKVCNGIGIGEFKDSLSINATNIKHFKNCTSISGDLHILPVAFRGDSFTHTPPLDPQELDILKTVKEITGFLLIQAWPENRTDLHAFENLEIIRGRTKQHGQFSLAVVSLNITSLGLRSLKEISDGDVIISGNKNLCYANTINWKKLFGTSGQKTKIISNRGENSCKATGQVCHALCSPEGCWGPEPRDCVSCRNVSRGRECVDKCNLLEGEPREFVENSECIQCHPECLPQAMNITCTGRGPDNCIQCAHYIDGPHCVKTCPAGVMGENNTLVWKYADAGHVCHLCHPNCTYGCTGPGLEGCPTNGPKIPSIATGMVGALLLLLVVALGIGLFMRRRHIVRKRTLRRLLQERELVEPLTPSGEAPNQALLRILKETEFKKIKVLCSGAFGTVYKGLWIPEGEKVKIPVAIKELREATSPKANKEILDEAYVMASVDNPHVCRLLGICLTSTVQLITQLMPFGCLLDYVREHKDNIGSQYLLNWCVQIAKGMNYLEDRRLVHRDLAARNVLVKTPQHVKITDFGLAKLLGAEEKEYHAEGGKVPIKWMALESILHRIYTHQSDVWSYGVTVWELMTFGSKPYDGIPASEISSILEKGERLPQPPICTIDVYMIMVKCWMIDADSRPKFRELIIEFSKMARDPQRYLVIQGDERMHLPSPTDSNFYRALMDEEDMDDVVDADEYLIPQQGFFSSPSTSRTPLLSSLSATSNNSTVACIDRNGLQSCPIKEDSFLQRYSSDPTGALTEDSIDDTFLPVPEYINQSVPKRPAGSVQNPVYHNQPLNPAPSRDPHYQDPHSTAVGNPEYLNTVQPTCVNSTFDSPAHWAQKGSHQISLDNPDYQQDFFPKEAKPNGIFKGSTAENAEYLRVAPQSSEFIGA

[10] = test system: Epidermal growth factor receptor (Homo sapiens), P00533 [G719S]; experiment: as §1; conditions: at 10 µM
[11] = test system: Epidermal growth factor receptor (Homo sapiens), P00533 [L858R,T790M]; experiment: as §1; conditions: at 10 µM
[12] = test system: Epidermal growth factor receptor (Homo sapiens), P00533 [L858R]; experiment: as §1; conditions: at 10 µM
Sequence of Epidermal growth factor receptor (Homo sapiens), P00533 [L858R] (P00533 whole entry L858R): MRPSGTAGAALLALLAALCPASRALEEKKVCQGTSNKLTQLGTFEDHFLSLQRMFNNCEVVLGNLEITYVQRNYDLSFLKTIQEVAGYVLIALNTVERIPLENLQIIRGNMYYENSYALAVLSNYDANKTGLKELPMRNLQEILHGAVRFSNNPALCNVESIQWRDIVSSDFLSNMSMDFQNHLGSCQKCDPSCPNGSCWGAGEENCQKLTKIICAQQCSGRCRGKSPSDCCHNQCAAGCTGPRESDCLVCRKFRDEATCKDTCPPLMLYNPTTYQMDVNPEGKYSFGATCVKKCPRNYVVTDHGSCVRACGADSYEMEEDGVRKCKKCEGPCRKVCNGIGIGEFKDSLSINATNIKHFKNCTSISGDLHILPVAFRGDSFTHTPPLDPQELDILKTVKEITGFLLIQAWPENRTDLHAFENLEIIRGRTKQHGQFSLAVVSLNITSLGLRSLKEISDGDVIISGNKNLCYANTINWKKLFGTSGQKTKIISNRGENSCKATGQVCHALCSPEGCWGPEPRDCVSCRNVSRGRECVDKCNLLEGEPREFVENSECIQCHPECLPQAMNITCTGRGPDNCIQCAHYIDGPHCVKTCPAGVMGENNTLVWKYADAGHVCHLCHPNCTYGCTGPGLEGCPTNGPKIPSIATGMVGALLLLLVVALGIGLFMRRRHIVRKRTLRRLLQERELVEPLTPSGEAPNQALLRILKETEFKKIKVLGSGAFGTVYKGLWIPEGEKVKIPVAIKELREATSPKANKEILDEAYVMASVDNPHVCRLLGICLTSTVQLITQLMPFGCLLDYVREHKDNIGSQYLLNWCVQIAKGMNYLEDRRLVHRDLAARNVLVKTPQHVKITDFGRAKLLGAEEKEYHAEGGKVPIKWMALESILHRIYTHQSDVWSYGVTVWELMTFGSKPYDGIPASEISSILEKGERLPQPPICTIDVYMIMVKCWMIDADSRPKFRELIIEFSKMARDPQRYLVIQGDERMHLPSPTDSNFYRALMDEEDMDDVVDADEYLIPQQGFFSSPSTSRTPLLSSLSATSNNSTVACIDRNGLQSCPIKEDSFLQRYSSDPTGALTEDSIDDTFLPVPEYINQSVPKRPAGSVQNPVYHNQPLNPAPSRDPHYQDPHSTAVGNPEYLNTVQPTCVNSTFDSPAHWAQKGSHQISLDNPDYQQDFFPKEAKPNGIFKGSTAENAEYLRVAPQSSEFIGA

[13] = test system: Epidermal growth factor receptor (Homo sapiens), P00533 [L861Q]; experiment: as §1; conditions: at 10 µM
[14] = test system: Epidermal growth factor receptor (Homo sapiens), P00533 [T790M]; experiment: as §1; conditions: at 10 µM
[15] = test system: Epidermal growth factor receptor (Homo sapiens), P00533 [UNDEFINED MUTATION]; experiment: as §1; conditions: at 10 µM
[16] = target: Epidermal growth factor receptor (Homo sapiens, UniProt P00533); experiment: as §1; conditions: at 10 µM

In the case of `Cc1cc([C@@H](C)Nc2ccccc2C(=O)O)c2nc(N3CCOCC3)cc(=O)n2c1` [AZD-6482], the % of control [1] is reported as 100%.

For `Cc1cnc(Nc2ccc(F)cc2Cl)nc1-c1c[nH]c(C(=O)N[C@H](CO)c2cccc(Cl)c2)c1`, the % of inhibition [2] was 69%.

In the case of `CC[C@@H]1[C@H](F)C(=O)N[C@@H]1COc1nccc2cc(C(N)=O)c(OC)cc12` [ZIMLOVISERTIB], the % of inhibition [3] is reported as -20.7% and the % of inhibition [4] is reported as -4.6%.

For `CCc1cccc(CC)c1NC(=O)c1nn(C)c2c1CCc1cnc(Nc3ccc(C(=O)NC4CCN(C)CC4)cc3OC(F)(F)F)nc1-2`, the IC50 [5] was > 10 µM.

With `Cc1cc(F)c(C(=O)Nc2cccc(-c3nncn3C(C)C)n2)cc1-n1cnc(C2CC2)c1` the % of control [6] was 100%.

For `Cc1cc(C)cc([C@H]2c3cc(C)ccc3NC(=O)CN2C(=O)c2ccc(Br)s2)c1`, the % of activity ([7]; at 1 µM) was 98% and the % of activity ([7]; at 10 µM) was 102%.

In the case of `CN(C)CCOc1ccc(-c2nc(-c3ccncc3)c(-c3ccc4c(c3)CC/C4=N\O)[nH]2)cc1`, the % of control [8] is reported as 83%.

For `CNC(=O)Nc1ccc(-c2nc(N3CC4CCC(C3)O4)c3cnn(C4CCC5(CC4)OCCO5)c3n2)cc1`, the % of control [9] was 80%, the % of control [10] was 69% and the % of control [11] was 100%. For the same compound, the % of control [12] was 53%, the % of control [13] was 64% and the % of control [14] was 68%. It also gave a % of control [15] of 38% and a % of control [16] of 62%.
